Assays:
[1] = tested on: Tyrosine-protein kinase ABL1 (Homo sapiens), P00519 [F317I]; details: Compound concentration 1000.0 nM
[2] = tested on: Tyrosine-protein kinase ABL1 (Homo sapiens), P00519 [T315I]; details: Compound concentration 1000.0 nM
[3] = molecular target: Activin receptor type-2B (Homo sapiens) (UniProt Q13705); details: Compound concentration 1000.0 nM
[4] = molecular target: Activin receptor type-1-like (Homo sapiens) (UniProt P37023); details: Compound concentration 1000.0 nM
[5] = molecular target: Ankyrin repeat and protein kinase domain-containing protein 1 (Homo sapiens) (UniProt Q8NFD2); details: Compound concentration 1000.0 nM
[6] = molecular target: Aurora kinase A (Homo sapiens) (UniProt O14965); details: Compound concentration 1000.0 nM
[7] = tested on: Serine/threonine-protein kinase B-raf (Homo sapiens), P15056 [V600E]; details: Compound concentration 1000.0 nM
[8] = molecular target: Calcium/calmodulin-dependent protein kinase kinase 2 (Homo sapiens) (UniProt Q96RR4); details: Compound concentration 1000.0 nM
[9] = molecular target: Cyclin-dependent kinase 11B (Homo sapiens) (UniProt P21127); details: Compound concentration 1000.0 nM
[10] = molecular target: Cyclin-dependent kinase 19 (Homo sapiens) (UniProt Q9BWU1); details: Compound concentration 1000.0 nM
[11] = molecular target: Death-associated protein kinase 1 (Homo sapiens) (UniProt P53355); details: Compound concentration 1000.0 nM
[12] = molecular target: Dual specificity tyrosine-phosphorylation-regulated kinase 2 (Homo sapiens) (UniProt Q92630); details: Compound concentration 1000.0 nM
[13] = molecular target: Mitogen-activated protein kinase 6 (Homo sapiens) (UniProt Q16659); details: Compound concentration 1000.0 nM
[14] = tested on: Fibroblast growth factor receptor 3 (Homo sapiens), P22607 [G697C]; details: Compound concentration 1000.0 nM
[15] = molecular target: Tyrosine-protein kinase Fyn (Homo sapiens) (UniProt P06241); details: Compound concentration 1000.0 nM
[16] = molecular target: Serine/threonine-protein kinase haspin (Homo sapiens) (UniProt Q8TF76); details: Compound concentration 1000.0 nM
[17] = molecular target: Mitogen-activated protein kinase kinase kinase kinase 1 (Homo sapiens) (UniProt Q92918); details: Compound concentration 1000.0 nM
[18] = molecular target: Interleukin-1 receptor-associated kinase 1 (Homo sapiens) (UniProt P51617); details: Compound concentration 1000.0 nM
[19] = tested on: Mast/stem cell growth factor receptor Kit (Homo sapiens), P10721 [D816V]; details: Compound concentration 1000.0 nM
[20] = molecular target: Mitogen-activated protein kinase kinase kinase 13 (Homo sapiens) (UniProt O43283); details: Compound concentration 1000.0 nM
[21] = molecular target: Maternal embryonic leucine zipper kinase (Homo sapiens) (UniProt Q14680); details: Compound concentration 1000.0 nM
[22] = tested on: Hepatocyte growth factor receptor (Homo sapiens), P08581 [M1250T]; details: Compound concentration 1000.0 nM
[23] = molecular target: MAP kinase-interacting serine/threonine-protein kinase 2 (Homo sapiens) (UniProt Q9HBH9); details: Compound concentration 1000.0 nM
[24] = molecular target: Serine/threonine-protein kinase MRCK alpha (Homo sapiens) (UniProt Q5VT25); details: Compound concentration 1000.0 nM
[25] = molecular target: Macrophage-stimulating protein receptor (Homo sapiens) (UniProt Q04912); details: Compound concentration 1000.0 nM
[26] = molecular target: Serine/threonine-protein kinase 26 (Homo sapiens) (UniProt Q9P289); details: Compound concentration 1000.0 nM
[27] = molecular target: Serine/threonine-protein kinase mTOR (Homo sapiens) (UniProt P42345); details: Compound concentration 1000.0 nM
[28] = molecular target: Myosin light chain kinase, smooth muscle (Homo sapiens) (UniProt Q15746); details: Compound concentration 1000.0 nM
[29] = molecular target: Cyclin-dependent kinase 18 (Homo sapiens) (UniProt Q07002); details: Compound concentration 1000.0 nM
[30] = tested on: Phosphatidylinositol 4,5-bisphosphate 3-kinase catalytic subunit alpha isoform (Homo sapiens), P42336 [H1047L]; details: Compound concentration 1000.0 nM
[31] = molecular target: Serine/threonine-protein kinase pim-3 (Homo sapiens) (UniProt Q86V86); details: Compound concentration 1000.0 nM
[32] = molecular target: Phosphatidylinositol 4-phosphate 5-kinase type-1 alpha (Homo sapiens) (UniProt Q99755); details: Compound concentration 1000.0 nM
[33] = molecular target: Phosphatidylinositol 4-phosphate 5-kinase type-1 gamma (Homo sapiens) (UniProt O60331); details: Compound concentration 1000.0 nM
[34] = molecular target: Serine/threonine-protein kinase N1 (Homo sapiens) (UniProt Q16512); details: Compound concentration 1000.0 nM
[35] = molecular target: Serine/threonine-protein kinase PLK1 (Homo sapiens) (UniProt P53350); details: Compound concentration 1000.0 nM
[36] = molecular target: Protein kinase C eta type (Homo sapiens) (UniProt P24723); details: Compound concentration 1000.0 nM
[37] = molecular target: Protein kinase C iota type (Homo sapiens) (UniProt P41743); details: Compound concentration 1000.0 nM
[38] = molecular target: Serine/threonine-protein kinase D3 (Homo sapiens) (UniProt O94806); details: Compound concentration 1000.0 nM
[39] = molecular target: Receptor-interacting serine/threonine-protein kinase 2 (Homo sapiens) (UniProt O43353); details: Compound concentration 1000.0 nM
[40] = molecular target: Ribosomal protein S6 kinase alpha-2 (Homo sapiens) (UniProt Q15349); details: Compound concentration 1000.0 nM
[41] = molecular target: Mitogen-activated protein kinase kinase kinase 7 (Homo sapiens) (UniProt O43318); details: Compound concentration 1000.0 nM
[42] = molecular target: TGF-beta receptor type-1 (Homo sapiens) (UniProt P36897); details: Compound concentration 1000.0 nM
[43] = molecular target: Dual specificity protein kinase TTK (Homo sapiens) (UniProt P33981); details: Compound concentration 1000.0 nM
[44] = molecular target: Sodium-dependent serotonin transporter (Homo sapiens) (UniProt P31645); details: Compound concentration 10.0 uM
[45] = molecular target: Histamine H4 receptor (Homo sapiens) (UniProt Q9H3N8); details: Compound concentration 10.0 uM

Myosin light chain kinase, smooth muscle (Homo sapiens), sequence (Q15746 whole entry): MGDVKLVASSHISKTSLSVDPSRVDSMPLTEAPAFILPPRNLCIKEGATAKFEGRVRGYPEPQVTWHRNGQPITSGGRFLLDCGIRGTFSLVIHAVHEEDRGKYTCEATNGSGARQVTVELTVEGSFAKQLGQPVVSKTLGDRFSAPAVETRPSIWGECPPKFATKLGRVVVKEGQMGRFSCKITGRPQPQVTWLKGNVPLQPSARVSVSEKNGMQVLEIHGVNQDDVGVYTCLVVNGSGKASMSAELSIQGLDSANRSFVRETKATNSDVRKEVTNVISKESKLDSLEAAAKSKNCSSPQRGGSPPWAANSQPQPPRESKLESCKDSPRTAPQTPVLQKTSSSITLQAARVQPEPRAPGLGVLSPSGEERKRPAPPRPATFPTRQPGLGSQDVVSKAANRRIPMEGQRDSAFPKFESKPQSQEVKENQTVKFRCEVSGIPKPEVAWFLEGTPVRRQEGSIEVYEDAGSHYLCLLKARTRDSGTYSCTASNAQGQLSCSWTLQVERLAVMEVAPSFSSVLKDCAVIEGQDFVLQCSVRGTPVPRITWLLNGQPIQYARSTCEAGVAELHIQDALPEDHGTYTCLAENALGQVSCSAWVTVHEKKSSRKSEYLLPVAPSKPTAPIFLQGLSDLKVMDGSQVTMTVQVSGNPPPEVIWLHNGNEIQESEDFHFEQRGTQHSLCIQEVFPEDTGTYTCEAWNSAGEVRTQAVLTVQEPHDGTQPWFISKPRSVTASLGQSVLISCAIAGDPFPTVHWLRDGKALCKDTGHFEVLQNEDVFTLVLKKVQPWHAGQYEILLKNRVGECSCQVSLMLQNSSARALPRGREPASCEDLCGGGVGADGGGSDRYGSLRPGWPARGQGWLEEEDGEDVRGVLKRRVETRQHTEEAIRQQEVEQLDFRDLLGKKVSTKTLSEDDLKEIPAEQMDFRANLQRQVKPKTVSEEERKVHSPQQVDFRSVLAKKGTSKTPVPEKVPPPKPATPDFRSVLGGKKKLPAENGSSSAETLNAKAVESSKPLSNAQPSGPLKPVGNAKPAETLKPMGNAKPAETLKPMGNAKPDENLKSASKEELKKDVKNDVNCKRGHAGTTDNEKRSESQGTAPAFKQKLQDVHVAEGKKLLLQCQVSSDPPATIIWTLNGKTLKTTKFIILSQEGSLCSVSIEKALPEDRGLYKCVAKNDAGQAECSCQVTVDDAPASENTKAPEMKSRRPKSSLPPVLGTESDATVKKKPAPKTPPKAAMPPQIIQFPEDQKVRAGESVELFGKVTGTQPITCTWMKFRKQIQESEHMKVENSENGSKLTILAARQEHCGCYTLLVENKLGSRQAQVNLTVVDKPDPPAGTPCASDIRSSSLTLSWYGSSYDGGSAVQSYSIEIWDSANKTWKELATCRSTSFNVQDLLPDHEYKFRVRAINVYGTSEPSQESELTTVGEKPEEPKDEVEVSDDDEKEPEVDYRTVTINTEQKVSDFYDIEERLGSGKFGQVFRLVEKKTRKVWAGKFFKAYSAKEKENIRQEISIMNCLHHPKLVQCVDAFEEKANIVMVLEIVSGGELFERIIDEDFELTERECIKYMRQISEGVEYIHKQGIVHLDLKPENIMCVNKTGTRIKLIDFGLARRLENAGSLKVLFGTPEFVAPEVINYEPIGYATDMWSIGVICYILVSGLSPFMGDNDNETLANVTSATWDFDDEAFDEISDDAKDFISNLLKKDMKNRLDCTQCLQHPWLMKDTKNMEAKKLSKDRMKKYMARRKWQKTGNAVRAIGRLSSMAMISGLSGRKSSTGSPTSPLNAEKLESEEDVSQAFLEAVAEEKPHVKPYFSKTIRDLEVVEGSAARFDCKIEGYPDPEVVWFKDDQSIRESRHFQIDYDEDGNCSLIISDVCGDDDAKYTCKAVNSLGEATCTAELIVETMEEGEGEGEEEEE
MAP kinase-interacting serine/threonine-protein kinase 2 (Homo sapiens), sequence (Q9HBH9 whole entry, looked up): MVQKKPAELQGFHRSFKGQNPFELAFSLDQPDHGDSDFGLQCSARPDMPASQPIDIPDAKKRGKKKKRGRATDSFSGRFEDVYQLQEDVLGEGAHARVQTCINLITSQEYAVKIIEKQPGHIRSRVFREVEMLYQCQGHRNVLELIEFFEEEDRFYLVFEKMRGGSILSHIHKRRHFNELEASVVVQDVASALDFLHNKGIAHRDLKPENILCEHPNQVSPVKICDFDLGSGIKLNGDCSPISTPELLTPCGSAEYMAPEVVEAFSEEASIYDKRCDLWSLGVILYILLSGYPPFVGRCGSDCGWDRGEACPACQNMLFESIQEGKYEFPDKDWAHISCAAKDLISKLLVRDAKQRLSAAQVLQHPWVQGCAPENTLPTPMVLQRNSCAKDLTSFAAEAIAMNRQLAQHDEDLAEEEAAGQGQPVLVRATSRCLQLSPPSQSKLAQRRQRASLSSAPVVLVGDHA
Serine/threonine-protein kinase haspin (Homo sapiens), sequence (Q8TF76 whole entry): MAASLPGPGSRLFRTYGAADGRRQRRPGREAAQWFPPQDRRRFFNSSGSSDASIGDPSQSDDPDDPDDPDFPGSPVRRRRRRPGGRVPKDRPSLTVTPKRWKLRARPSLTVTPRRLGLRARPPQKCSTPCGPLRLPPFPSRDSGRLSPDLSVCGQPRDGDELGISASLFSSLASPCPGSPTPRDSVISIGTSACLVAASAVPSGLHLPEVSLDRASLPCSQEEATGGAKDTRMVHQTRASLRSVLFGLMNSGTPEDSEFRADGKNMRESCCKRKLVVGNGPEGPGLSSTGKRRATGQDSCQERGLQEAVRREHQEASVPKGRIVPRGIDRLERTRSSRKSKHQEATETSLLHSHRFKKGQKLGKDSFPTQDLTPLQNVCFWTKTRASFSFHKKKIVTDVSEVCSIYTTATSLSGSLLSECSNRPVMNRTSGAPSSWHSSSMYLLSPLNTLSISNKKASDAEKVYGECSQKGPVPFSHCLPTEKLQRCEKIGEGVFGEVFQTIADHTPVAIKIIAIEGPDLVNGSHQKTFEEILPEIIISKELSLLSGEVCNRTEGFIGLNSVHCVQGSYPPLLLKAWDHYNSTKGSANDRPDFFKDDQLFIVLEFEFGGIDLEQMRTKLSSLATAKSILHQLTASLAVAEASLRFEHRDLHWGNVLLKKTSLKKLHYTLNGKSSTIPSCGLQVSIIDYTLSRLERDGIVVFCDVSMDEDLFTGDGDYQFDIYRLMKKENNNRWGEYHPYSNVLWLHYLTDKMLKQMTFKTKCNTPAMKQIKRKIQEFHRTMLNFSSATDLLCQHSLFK
Interleukin-1 receptor-associated kinase 1 (Homo sapiens), sequence (P51617 whole entry, looked up): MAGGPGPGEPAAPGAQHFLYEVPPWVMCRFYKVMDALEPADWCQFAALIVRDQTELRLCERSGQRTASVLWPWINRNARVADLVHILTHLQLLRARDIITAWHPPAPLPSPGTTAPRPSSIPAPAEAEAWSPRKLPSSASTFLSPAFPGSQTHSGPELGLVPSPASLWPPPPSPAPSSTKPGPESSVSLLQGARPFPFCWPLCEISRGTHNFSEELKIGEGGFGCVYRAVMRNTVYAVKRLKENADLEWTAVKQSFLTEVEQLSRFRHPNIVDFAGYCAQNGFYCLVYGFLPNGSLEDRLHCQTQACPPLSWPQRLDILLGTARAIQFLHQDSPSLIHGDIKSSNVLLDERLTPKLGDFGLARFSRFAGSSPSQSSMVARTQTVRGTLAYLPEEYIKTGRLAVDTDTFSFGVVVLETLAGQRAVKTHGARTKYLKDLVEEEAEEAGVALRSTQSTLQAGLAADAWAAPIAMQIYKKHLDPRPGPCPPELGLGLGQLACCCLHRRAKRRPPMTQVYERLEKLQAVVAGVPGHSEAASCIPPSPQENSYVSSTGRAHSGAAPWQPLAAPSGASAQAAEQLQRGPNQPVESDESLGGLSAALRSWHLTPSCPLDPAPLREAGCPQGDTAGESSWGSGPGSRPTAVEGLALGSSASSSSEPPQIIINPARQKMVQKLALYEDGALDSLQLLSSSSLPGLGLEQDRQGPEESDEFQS
Dual specificity protein kinase TTK (Homo sapiens), sequence (P33981 whole entry): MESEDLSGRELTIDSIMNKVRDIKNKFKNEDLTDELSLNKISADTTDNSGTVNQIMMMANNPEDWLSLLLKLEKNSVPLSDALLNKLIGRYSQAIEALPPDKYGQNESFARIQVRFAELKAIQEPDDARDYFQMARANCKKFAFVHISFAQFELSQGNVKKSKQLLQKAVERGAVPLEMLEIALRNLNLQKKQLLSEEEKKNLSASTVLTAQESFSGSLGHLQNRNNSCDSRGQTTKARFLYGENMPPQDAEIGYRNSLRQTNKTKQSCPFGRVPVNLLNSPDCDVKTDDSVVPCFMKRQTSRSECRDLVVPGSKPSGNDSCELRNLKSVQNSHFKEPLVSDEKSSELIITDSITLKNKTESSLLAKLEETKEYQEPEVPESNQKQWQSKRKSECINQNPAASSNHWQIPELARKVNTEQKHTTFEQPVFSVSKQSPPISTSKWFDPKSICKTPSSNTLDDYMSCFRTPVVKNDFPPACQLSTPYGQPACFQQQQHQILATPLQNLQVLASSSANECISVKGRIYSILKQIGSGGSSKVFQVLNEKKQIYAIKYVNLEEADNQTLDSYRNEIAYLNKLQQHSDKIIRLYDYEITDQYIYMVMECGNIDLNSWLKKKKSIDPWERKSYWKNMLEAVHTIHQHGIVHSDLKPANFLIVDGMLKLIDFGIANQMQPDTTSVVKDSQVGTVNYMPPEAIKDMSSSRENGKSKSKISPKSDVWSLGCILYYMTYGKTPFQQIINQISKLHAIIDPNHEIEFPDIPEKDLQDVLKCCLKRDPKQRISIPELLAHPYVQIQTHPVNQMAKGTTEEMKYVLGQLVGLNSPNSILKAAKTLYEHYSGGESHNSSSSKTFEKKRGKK

## Cn1cncc1[C@@](O)(COc1ccc(C#N)cc1-c1ccc(OC(F)(F)F)cc1)c1ccc(C#N)cc1 [A-108]
[1]
  residual activity: 100%
[2]
  residual activity: 6.1%
[3]
  residual activity: 100%
[4]
  residual activity: 100%
[5]
  residual activity: 100%
[6]
  residual activity: 76%
[7]
  residual activity: 100%
[8]
  residual activity: 97%
[9]
  residual activity: 92%
[10]
  residual activity: 64%
[11]
  residual activity: 100%
[12]
  residual activity: 89%
[13]
  residual activity: 93%
[14]
  residual activity: 97%
[15]
  residual activity: 97%
[16]
  residual activity: 100%
[17]
  residual activity: 100%
[18]
  residual activity: 73%
[19]
  residual activity: 100%
[20]
  residual activity: 72%
[21]
  residual activity: 79%
[22]
  residual activity: 97%
[23]
  residual activity: 74%
[24]
  residual activity: 81%
[25]
  residual activity: 100%
[26]
  residual activity: 99%
[27]
  residual activity: 100%
[28]
  residual activity: 99%
[29]
  residual activity: 100%
[30]
  residual activity: 100%
[31]
  residual activity: 100%
[32]
  residual activity: 87%
[33]
  residual activity: 100%
[34]
  residual activity: 100%
[35]
  residual activity: 83%
[36]
  residual activity: 95%
[37]
  residual activity: 100%
[38]
  residual activity: 98%
[39]
  residual activity: 100%
[40]
  residual activity: 100%
[41]
  residual activity: 67%
[42]
  residual activity: 78%
[43]
  residual activity: 100%
[44]
  inhibition: -7.91%
[45]
  inhibition: -3.79%

## Cn1cncc1[C@](O)(COc1ccc(C#N)cc1-c1ccc(OC(F)(F)F)cc1)c1ccc(C#N)cc1 [ABT-100]
[1]
  residual activity: 98%
[2]
  residual activity: 84%
[3]
  residual activity: 100%
[4]
  residual activity: 100%
[5]
  residual activity: 100%
[6]
  residual activity: 95%
[7]
  residual activity: 82%
[8]
  residual activity: 100%
[9]
  residual activity: 100%
[10]
  residual activity: 84%
[11]
  residual activity: 84%
[12]
  residual activity: 52%
[13]
  residual activity: 85%
[14]
  residual activity: 60%
[15]
  residual activity: 100%
[16]
  residual activity: 100%
[17]
  residual activity: 100%
[18]
  residual activity: 83%
[19]
  residual activity: 85%
[20]
  residual activity: 100%
[21]
  residual activity: 74%
[22]
  residual activity: 100%
[23]
  residual activity: 85%
[24]
  residual activity: 78%
[25]
  residual activity: 100%
[26]
  residual activity: 100%
[27]
  residual activity: 57%
[28]
  residual activity: 88%
[29]
  residual activity: 90%
[30]
  residual activity: 100%
[31]
  residual activity: 89%
[32]
  residual activity: 91%
[33]
  residual activity: 93%
[34]
  residual activity: 100%
[35]
  residual activity: 77%
[36]
  residual activity: 94%
[37]
  residual activity: 100%
[38]
  residual activity: 100%
[39]
  residual activity: 100%
[40]
  residual activity: 89%
[41]
  residual activity: 100%
[42]
  residual activity: 81%
[43]
  residual activity: 100%
[44]
  inhibition: 1.25%
[45]
  inhibition: -6.36%
